In PubChem BioAssay AID248 (DTP/NCI, 2004):
Several values for one entry are separate records, joined by “and”; a condition that tells them apart may be missing. Equal entries are not always repeated. Inconclusive results and toxic doses are left out. No stated cut-off is given here; in the data, active means T/C of 150% or more; inactive means T/C below 125%.

Tested on: L1210 leukemia ip in BDF1 mice, survival T/C
Experiment: NCI In Vivo Anticancer Drug Screen. Data for tumor model L1210 Leukemia (intraperitoneal) in B6D2F1 (BDF1) mice
Conditions: endpoint: mean survival time, higher = longer survival
Method in brief: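 Read-out is survival time, reported as the treated-group measurement over the vehicle-control measurement.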

[1] = dose: 100.0 mg/kg/injection, schedule: Q04DX003 (ip), vehicle: saline with Tween-80
[2] = dose: 200.0 mg/kg/injection, schedule: Q04DX003 (ip), vehicle: saline with Tween-80
[3] = dose: 400.0 mg/kg/injection, schedule: Q04DX003 (ip), vehicle: saline with Tween-80
[4] = dose: 50.0 mg/kg/injection, schedule: Q01DX009 (ip), vehicle: saline
[5] = dose: 100.0 mg/kg/injection, schedule: Q01DX009 (ip), vehicle: saline
[6] = dose: 200.0 mg/kg/injection, schedule: Q01DX009 (ip), vehicle: saline
[7] = dose: 50.0 mg/kg/injection, schedule: Q01DX001 (ip), vehicle: saline
[8] = dose: 100.0 mg/kg/injection, schedule: Q01DX001 (ip), vehicle: saline
[9] = dose: 200.0 mg/kg/injection, schedule: Q01DX001 (ip), vehicle: saline
[10] = dose: 400.0 mg/kg/injection, schedule: Q01DX001 (ip), vehicle: saline
[11] = dose: 100.0 mg/kg/injection, schedule: Q01DX009 (ip), vehicle: Klucel (hydroxypropylcellulose) (HPC)
[12] = dose: 100.0 mg/kg/injection, schedule: Q04DX003 (ip), vehicle: Klucel (hydroxypropylcellulose) (HPC)
[13] = dose: 200.0 mg/kg/injection, schedule: Q01DX009 (ip), vehicle: Klucel (hydroxypropylcellulose) (HPC)
[14] = dose: 200.0 mg/kg/injection, schedule: Q04DX003 (ip), vehicle: Klucel (hydroxypropylcellulose) (HPC)
[15] = dose: 400.0 mg/kg/injection, schedule: Q04DX003 (ip), vehicle: Klucel (hydroxypropylcellulose) (HPC)
[16] = dose: 25.0 mg/kg/injection, schedule: Q04DX002 (ip), vehicle: saline with Tween-80
[17] = dose: 50.0 mg/kg/injection, schedule: Q04DX002 (ip), vehicle: saline with Tween-80
[18] = dose: 100.0 mg/kg/injection, schedule: Q01DX001 (ip), vehicle: carboxymethylcellulose (CMC)
[19] = dose: 200.0 mg/kg/injection, schedule: Q01DX001 (ip), vehicle: carboxymethylcellulose (CMC)
[20] = dose: 400.0 mg/kg/injection, schedule: Q01DX001 (ip), vehicle: carboxymethylcellulose (CMC)

Measured: T/C

S=C(S)NCCNC(=S)S
inactive: [1] 93 % of control | dose: 100.0 mg/kg/injection, schedule: Q04DX003 (ip), vehicle: saline 95 % of control | [2] 90 % of control | dose: 200.0 mg/kg/injection, schedule: Q04DX003 (ip), vehicle: saline 97 % of control | [3] 87 % of control | dose: 400.0 mg/kg/injection, schedule: Q04DX003 (ip), vehicle: saline 101 % of control

CC(C)(O)C[N+](=O)[O-]
inactive: [4] 88 % of control | [5] 88 % of control | [6] 88 % of control

Cc1ccc(C(=O)c2ccc(Cl)cc2)cc1
inactive: [7] 90 % of control | [8] 98 % of control | [9] 102 % of control | [10] 96 % of control

C=C[CH2][Sn]([Br])([c]1ccccc1)[c]1ccccc1
inactive: dose: 1.56 mg/kg/injection, schedule: Q01DX009 (ip), vehicle: saline with Tween-80 89 % of control | dose: 3.13 mg/kg/injection, schedule: Q01DX009 (ip), vehicle: saline with Tween-80 92 % of control

CCOC(=O)Nc1ccc(NC(=O)OCC)cc1
inactive: [11] 89 % of control | [12] 96 % of control | [13] 89 % of control | [14] 93 % of control | [15] 111 % of control

Cc1c2cnccc2c(C)c2c1c1ccccc1n2CCCCl
inactive: dose: 100.0 mg/kg/injection, schedule: Q01DX001 (ip), vehicle: Klucel (hydroxypropylcellulose) (HPC) 102 % of control | [12] 96 % of control | dose: 200.0 mg/kg/injection, schedule: Q01DX001 (ip), vehicle: Klucel (hydroxypropylcellulose) (HPC) 96 % of control | [14] 94 % of control | dose: 400.0 mg/kg/injection, schedule: Q01DX001 (ip), vehicle: Klucel (hydroxypropylcellulose) (HPC) 94 % of control | [15] 96 % of control

Cc1nc(N)nc(N)c1Cc1ccc(N=[N+]=[N-])cc1
inactive: [16] 98 % of control | [17] 113 % of control

CC(C)OCCCNC(=O)NS(=O)(=O)c1ccc(N)cc1
inactive: [1] 101 % of control | [2] 100 % of control | [3] 92 % of control

Oc1ccc([S+](c2ccc(O)cc2)c2ccc(O)cc2)cc1
inactive: dose: 5.0 mg/kg/injection, schedule: Q01DX001 (ip), vehicle: saline 96 % of control | dose: 10.0 mg/kg/injection, schedule: Q01DX001 (ip), vehicle: saline 96 % of control | dose: 20.0 mg/kg/injection, schedule: Q01DX001 (ip), vehicle: saline 107 % of control | dose: 40.0 mg/kg/injection, schedule: Q01DX001 (ip), vehicle: saline 105 % of control

CC(=O)Nc1ccc(OC(=O)Nc2cc(C)ccc2C)cc1
inactive: dose: 25.0 mg/kg/injection, schedule: Q01DX009 (ip), vehicle: Klucel (hydroxypropylcellulose) (HPC) 109 % of control | dose: 50.0 mg/kg/injection, schedule: Q01DX009 (ip), vehicle: Klucel (hydroxypropylcellulose) (HPC) 88 % of control | [11] 94 % of control | dose: 100.0 mg/kg/injection, schedule: Q04DX002 (ip), vehicle: Klucel (hydroxypropylcellulose) (HPC) 102 % of control | [12] 95 % of control | [13] 89 % of control | dose: 200.0 mg/kg/injection, schedule: Q04DX002 (ip), vehicle: Klucel (hydroxypropylcellulose) (HPC) 97 % of control | [14] 97 % of control | dose: 400.0 mg/kg/injection, schedule: Q04DX002 (ip), vehicle: Klucel (hydroxypropylcellulose) (HPC) 100 % of control | [15] 93 % of control

Cc1cccc(C(=O)NN)n1
inactive: dose: 12.5 mg/kg/injection, schedule: Q01DX009 (ip), vehicle: saline 94 % of control | dose: 25.0 mg/kg/injection, schedule: Q01DX009 (ip), vehicle: saline 105 % of control

CC/C(=C\c1ccc2ccccc2c1)[N+](=O)[O-]
inactive: dose: 75.0 mg/kg/injection, schedule: Q01DX001 (ip), vehicle: saline 97 % of control | dose: 150.0 mg/kg/injection, schedule: Q01DX001 (ip), vehicle: saline 103 % of control

CC1(C)N=C(N)N=C(N)N1c1cccc(OCCOc2ccc([N+](=O)[O-])cc2)c1
inactive: [8] 101 % of control | [9] 95 % of control

CC(=O)Nc1c(Br)cc2c(c1Br)C(=O)c1ccccc1-2
inactive: [18] 97 % of control | [19] 87 % of control | [20] 97 % of control

CC(C)(C)c1cc(OCC2CO2)ccc1OCC1CO1 (centres undefined)
inactive: [8] 107 % of control | [9] 107 % of control | [10] 95 % of control

OCCOc1ccc(Cl)cc1Cl
inactive: dose: 50.0 mg/kg/injection, schedule: Q01DX001 (ip), vehicle: other 101 % of control | dose: 75.0 mg/kg/injection, schedule: Q01DX009 (ip), vehicle: saline with Tween-80 101 % of control | dose: 100.0 mg/kg/injection, schedule: Q01DX001 (ip), vehicle: other 103 % of control | dose: 150.0 mg/kg/injection, schedule: Q01DX009 (ip), vehicle: saline with Tween-80 98 % of control | dose: 200.0 mg/kg/injection, schedule: Q01DX001 (ip), vehicle: other 103 % of control | dose: 300.0 mg/kg/injection, schedule: Q01DX009 (ip), vehicle: saline with Tween-80 109 % of control

NC(=S)N/N=C\c1cn(Cc2ccccc2)c2ccccc12
inactive: [7] 95 % of control | [8] 101 % of control | [9] 101 % of control | [10] 97 % of control

Nc1nc(N)c2nc(CNC3CCCCC3)cnc2n1
inactive: dose: 20.0 mg/kg/injection, schedule: Q01DX009 (ip), vehicle: Klucel (hydroxypropylcellulose) (HPC) 95 % of control | dose: 40.0 mg/kg/injection, schedule: Q01DX009 (ip), vehicle: Klucel (hydroxypropylcellulose) (HPC) 93 % of control | dose: 80.0 mg/kg/injection, schedule: Q01DX009 (ip), vehicle: Klucel (hydroxypropylcellulose) (HPC) 97 % of control

NC(CSS(=O)(=O)O)=NCC1CC2CCC1C2 (centres undefined)
inactive: dose: 6.25 mg/kg/injection, schedule: Q04DX002 (ip), vehicle: saline with Tween-80 100 % of control | dose: 12.5 mg/kg/injection, schedule: Q04DX002 (ip), vehicle: saline with Tween-80 110 % of control | [16] 106 % of control

COC(C)(C)C(C)O (centres undefined)
inactive: [4] 100 % of control | [5] 96 % of control | [6] 100 % of control

O=C(Nc1ccc(C2=NCCN2)cc1)c1cccc(NC(=S)Nc2ccc(C3=NCCN3)cc2)c1
inactive: dose: 5.0 mg/kg/injection, schedule: Q01DX Z (ip), vehicle: saline 107 % of control and 122 % of control | dose: 20.0 mg/kg/injection, schedule: Q01DX Z (ip), vehicle: saline 102 % of control and 113 % of control | dose: 60.0 mg/kg/injection, schedule: Q01DX Z (oral), vehicle: saline 103 % of control | dose: 120.0 mg/kg/injection, schedule: Q01DX Z (oral), vehicle: saline 111 % of control

CC1(C)CSCC(C)(C)C(=O)C1=O
inactive: [17] 100 % of control | dose: 100.0 mg/kg/injection, schedule: Q04DX002 (ip), vehicle: saline with Tween-80 109 % of control | dose: 200.0 mg/kg/injection, schedule: Q04DX002 (ip), vehicle: saline with Tween-80 103 % of control

O=C(OCC(O)C1OC(c2ccccc2)OC1C(O)COC(=O)c1ccccc1)c1ccccc1 (centres undefined)
inactive: dose: 50.0 mg/kg/injection, schedule: Q04DX003 (ip), vehicle: saline with Tween-80 102 % of control | [1] 92 % of control and 91 % of control | [2] 105 % of control | [3] 89 % of control

Nc1cc2c3ccccc3c(F)cc2c2ccccc12
inactive: [11] 106 % of control | [12] 96 % of control | [13] 104 % of control | [14] 93 % of control | dose: 400.0 mg/kg/injection, schedule: Q01DX009 (ip), vehicle: Klucel (hydroxypropylcellulose) (HPC) 101 % of control | [15] 98 % of control

CCN(CC[n+]1ccccc1)c1ccccc1 (tested in a mixture with another compound)
inactive: [7] 103 % of control

COc1nn(C)c(=O)c2ncccc12
inactive: dose: 15.0 mg/kg/injection, schedule: Q01DX001 (ip), vehicle: carboxymethylcellulose (CMC) 93 % of control | dose: 30.0 mg/kg/injection, schedule: Q01DX001 (ip), vehicle: carboxymethylcellulose (CMC) 92 % of control

O=C1OCc2cc[n+]([O-])cc21
inactive: [18] 97 % of control | [19] 96 % of control | [20] 107 % of control
